For 40 molecules, GI50 and TGI results are on record in PubChem BioAssay (NCI).

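Following 48 hours of exposure in 96-well plates, responses at five concentrations were used to interpolate endpoints linearly. Abbreviation: GI50, concentration required for 50% inhibition of growth. Definition used: TGI = concentration required for complete inhibition of growth.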

In the assay the test system is MDA-MB-468 breast. The experiment in a line: inhibition of tumour cell growth, NCI panel, 48 h.
As to `CCCCCCCCOC(=O)c1c(C)[nH]c(/C=C2\N=C(c3ccc[nH]3)C=C2OC)c1C`, the GI50 was 86.8 nM and the TGI was found to be 2670 nM.
On to `COC(=O)C12CC(NC(=O)c3csc([C@@H](C[C@H](C(C)C)N(C)C(=O)[C@@H](NC(=O)[C@H]4CCCCN4C)C4CC4)OC(C)=O)n3)(C1)C2`, for which the GI50 was 16.9 nM and the TGI was more than 16700 nM.
As for `C=C1C(=O)O[C@H]2[C@H]1CC/C(COC(=O)NCc1ccc(OC)cc1)=C\CC[C@@]1(C)O[C@@H]21`, the GI50 was 352 nM and the TGI was 1750 nM.
Consider `CSc1ccc(/C(=N/N=C(N)N)c2ccccc2)cc1`, for which the GI50 was 451 nM and the TGI is 8600 nM.
As to `CCN(Cc1cc(F)ccc1F)c1ccc(CO)c(Cl)c1`, the GI50 was 16.4 nM and the TGI worked out at 41.1 nM.
As for `CN1CCN(CCOc2ccc(-c3cnc4c(-c5cccc(F)c5)cnn4c3)cc2)CC1`, the GI50 was 1670 nM and the TGI is 3250 nM.
With `C=C/C(C)=C/C[C@]1(C)[C@H](C)[C@@H](OC(=O)CCC)[C@H](O)[C@@]23C(=C[C@H](OC)C[C@@H]12)[C@@H](OC(=O)CCC)O[C@H]3OC(C)=O`, the GI50 is 337 nM and the TGI turned out to be 1240 nM.
As to `O=S1(=O)N(Cc2ccccc2)[C@@H](Cc2ccccc2)[C@H](O)[C@H](O)[C@H](Cc2ccccc2)N1Cc1ccccc1`, the GI50 was 2980 nM and the TGI worked out at 7170 nM.
As to `CC(Nc1c(C#N)cnc2ccc(-c3cncc(-c4n[nH]c(=O)o4)c3)cc12)c1ccccc1` (stereo not given), the GI50 is 1230 nM and the TGI worked out at 3660 nM.
On to `CC1CN(S(=O)(=O)c2oc(-c3ccc(Cl)cc3)nc2C#N)CC(C)O1` (stereo not given), for which the GI50 was 1870 nM and the TGI is 4160 nM.
With `NCCCCC1NC(=O)C(CC(=O)O)NC(=O)CNC(=O)C(CCCN=C(N)N)NC(=O)C(N)CSSCC(C(=O)O)NC(=O)C(CC(=O)O)NC(=O)C2CCCN2C(=O)CNC1=O` (stereo not given), the GI50 was more than 100000 nM and the TGI is more than 100000 nM.
Regarding `CCn1c(-c2cc3c([nH]c4ccccc43)c(-c3cccc(O)c3)n2)n[nH]c1=S`, the GI50 is 3190 nM and the TGI was 15200 nM.
For the molecule `NS(=O)(=O)c1ccc(N=Nc2c(O)[nH]c3ccc(C(=O)NCc4ccncc4)cc23)cc1`, the GI50 was more than 25000 nM and the TGI is more than 25000 nM.
Take `CCCCCN(CCCCC)CC(O)c1cc(Cl)ccc1OC` (stereo not given): the GI50 is 9710 nM and the TGI turned out to be 23100 nM.
For `CCN1CCN(c2cc(C)nc(N(CCCNc3ccnc4cc(Cl)ccc34)Cc3ccc4c(c3)OCO4)n2)CC1`, the GI50 was 1820 nM and the TGI was 4250 nM.
On to `CCC(C)Oc1nc2c(c(=O)n(C)c(=O)n2C)n1C` (stereo not given), for which the GI50 is more than 100000 nM and the TGI was more than 100000 nM.
`O=C(/C=C/c1ccc(C(F)(F)F)cc1)Nc1ccc(C=C2c3ccccc3C(=O)c3ccccc32)cc1`: the GI50 was 1990 nM and the TGI stood at 20800 nM.
With `C1=C/COCc2cc(ccc2OCCN2CCCC2)Nc2nccc(n2)-c2ccc(o2)COC/1`, the GI50 is 1490 nM and the TGI came to 3180 nM.
The corresponding values for `COc1cccc(CN(C)c2ccc(CO)c(Cl)c2)c1` are 20.9 nM and 60 nM.
The corresponding values for `O=C(Nc1ccc(-n2ccc3c(NC(=O)c4ccccc4)ncnc32)cc1)c1cccc(C(F)(F)F)c1` are 4050 nM and 20400 nM.
On to `COC(=O)C(CCC(=O)CCl)N1C(=O)c2ccccc2C1=O` (stereo not given), for which the GI50 was 2110 nM and the TGI amounted to 5610 nM.
Regarding `CN(Cc1ccc(C(F)(F)F)cc1)CC(O)C(=O)Nc1ccc(Cl)cc1` (stereo not given), the GI50 is 1370 nM and the TGI came to 2910 nM.
Consider `Cc1cc(C)c2c(n1)sc1c(N)ncnc12`, for which the GI50 was 19900 nM and the TGI was more than 25000 nM.
Consider `CCN1CCN(Cc2ccc(NC(=O)Nc3nc4ccc(Oc5ccnc(C(=O)NC)c5)cc4s3)cc2C(F)(F)F)CC1`, for which the GI50 was 1660 nM and the TGI was 3200 nM.
In the case of `CC1=C2C(=CC(C)(C)[C@@H]2O)C(=O)[C@](C)(O)C12CC2`, the GI50 was 12.9 nM and the TGI was 36.2 nM.
The corresponding values for `Cc1ccc2nc(-c3ccc(OCC(=O)N=Nc4c(O)[nH]c5ccccc45)cc3)[nH]c2c1` are 2090 nM and 4900 nM.
The corresponding values for `O=C(Nc1ccc(F)cc1F)c1cc(Cl)ccc1O` are 1640 nM and 5070 nM.
The corresponding values for `c1cc(-c2nnc(SSc3ncnc4nc[nH]c34)o2)ccn1` are 251 nM and 967 nM.
As for `CN1CCN(Cc2ccc(NC(=O)c3cncc(C#Cc4cnc(N)cc4C#N)c3)cc2C(F)(F)F)CC1`, the GI50 is 2010 nM and the TGI came to 5300 nM.
`Cc1ncc(C(=O)Nc2ccc(CN3CCN(C)CC3)c(C(F)(F)F)c2)cc1C#Cc1ccc(N)nc1`: the GI50 is 368 nM and the TGI was 2120 nM.
On to `CSc1ncc(Br)c(Sc2nc(N)nc3nc[nH]c23)n1`, for which the GI50 was 2360 nM and the TGI worked out at 19700 nM.
As to `N#C/C(=C\c1ccc([N+](=O)[O-])s1)c1nc2cc(Cl)ccc2s1`, the GI50 is 2360 nM and the TGI came out at 5760 nM.
Take `COc1ccc(/C=C/C(=O)c2ccc(-n3cc(CN4CCN(c5cc6c(cc5F)c(=O)c(C(=O)O)cn6C5CC5)CC4)nn3)cc2)cc1OC`: the GI50 was 1960 nM and the TGI came out at 5240 nM.
For `O=C1C2=C(C(=O)c3cnccc31)C1C=CC2CC1` (stereo not given), the GI50 was 185 nM and the TGI was 416 nM.
Take `Cc1cc(Nc2nc(C(=O)Nc3ccccc3)nc3ccccc23)n[nH]1`: the GI50 is 9150 nM and the TGI was more than 25000 nM.
Take `COc1cc2ncnc(-n3ncc4cc(NC(=O)Nc5ccc(Cl)c(Cl)c5)ccc43)c2cc1OC`: the GI50 is 2170 nM and the TGI was 4520 nM.
Turning to `CN(C)CCNC(=O)c1ccc(-c2nc3ccc4[nH]ncc4c3c3c2C2CCC3C2)cc1` (stereo not given), the GI50 was 1120 nM and the TGI was 3140 nM.
As for `C#CCNC(=S)N/N=C(\C)c1ccccn1`, the GI50 was 33.5 nM and the TGI was determined as 273 nM.
`NC(=O)[C@@H](CC1CC1)[C@@H](CCC(F)(F)F)C(=O)N[C@H]1N=C(c2ccccc2)c2cccc(F)c2NC1=O`: the GI50 is more than 100000 nM and the TGI was more than 100000 nM.
For `CC(C)c1nc(N(C)S(C)(=O)=O)nc(-c2ccc(F)cc2)c1/C=C/[C@@H](O)C[C@@H](O)CC(=O)O`, the GI50 was 18500 nM and the TGI worked out at 69300 nM.
